Test results as given in patent US20230248652A1, “BIODEGRADEABLE MULTI-CAVITY MICROPARTICLES AND THEIR USE IN TREATMENT” (OXFORD UNIVERSITY INNOVATION LIMITED, priority 2020, published 2023).

Tested on: 3D foam cell spheroid
Test: HIFU implantation of loaded mcPLGA MPs into 3D foam cell spheroids (fluorescence)
Type: cell-based, human
Conditions: HIFU exposure, 1 mg/ml
Method: As the cells in the ex vivo porcine artery were considered non-viable, we have also tested the ability to deliver DAPI to viable cells using a 3D foam cell spheroid model (FIG. 13).
THP-1 cells, a human monocytic cell line (ATCC, Rockville, MD) were routinely cultured in Roswell Park Memorial Institute (RPMI) 1640 Medium supplemented with 100 IU/ml of penicillin, 100 µg/ml streptomycin, 2 mmol/l L-glutamine, 10% (vol/vol) FBS and incubated in a humidified atmosphere of 5% CO2 in an incubator at 37° C. The medium was replaced every 2-3 days by centrifuging these suspended cells at 125 g for 5 min. For differentiation of THP-1 monocytes into macrophages, THP-1 cells were seeded at a density of 7 × 10^5 cells/ml with differentiation medium, growth medium supplemented with 50 ng/mL phorbol 12-myristate 13-acetate (PMA), for 3 days to obtain macrophages. Subsequently, for foam cells induction, macrophages were incubated with 100 µg/ml oxLDL (Low Density Lipoprotein from Human Plasma, oxidized; Invitrogen,USA) in the differentiation medium for 2 days.
Foam cells were used to produce a three-dimensional (3D) foam cell spheroid model by modification of the hanging drop method. Single-cell suspensions were generated from trypsinized monolayers. […]
Fluorescence microscopy was used to analyze the distribution of mcPLGA MPs and the release of therapeutics (FIG. 27c). […]

SMILES: N=C(N)c1ccc(-c2cc3ccc(C(=N)N)cc3[nH]2)cc1 [DAPI]
- delivery of DAPI / particle distribution in foam cell spheroid: diffused through the membranes of the cells to stain the DNA of the foam cells
